Article PMC3646888 (PLoS ONE, 2013)
“Also recorded” adds a separate entry of the source.

Key:
[1] = biological target: T1, CYP2C11 (Rattus norvegicus, UniProt P08683); test: Fluorescence-based CYP assay, recombinant CYP2C11, substrate DBF; assay type: in vitro ADME
T1 sequence (P08683 1-500): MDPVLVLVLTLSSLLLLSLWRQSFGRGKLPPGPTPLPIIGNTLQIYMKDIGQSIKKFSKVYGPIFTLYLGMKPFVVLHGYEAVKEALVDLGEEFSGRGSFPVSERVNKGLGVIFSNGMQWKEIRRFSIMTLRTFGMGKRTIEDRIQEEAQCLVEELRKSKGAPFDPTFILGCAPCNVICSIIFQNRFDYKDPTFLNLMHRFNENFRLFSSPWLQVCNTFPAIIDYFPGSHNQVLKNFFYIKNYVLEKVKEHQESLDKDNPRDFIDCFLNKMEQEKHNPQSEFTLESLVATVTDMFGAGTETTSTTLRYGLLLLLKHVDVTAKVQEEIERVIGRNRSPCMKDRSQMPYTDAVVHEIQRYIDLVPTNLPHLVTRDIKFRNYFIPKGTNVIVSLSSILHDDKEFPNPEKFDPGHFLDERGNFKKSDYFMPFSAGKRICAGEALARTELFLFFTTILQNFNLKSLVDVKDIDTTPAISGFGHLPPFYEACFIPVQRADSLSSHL
Experimental: (§1) These assays were performed by methods similar to those described by VanAlstine and Hough, Stresser et al., Wulff et al., Henderson et al., and Crespi et al., with minor modifications. All incubations were performed in a final volume of 200 µL of 50 mM potassium phosphate buffer at pH 7.4 containing 1% acetonitrile. CYP inhibitor studies were performed according to the parameters of Table 1. Substrate concentrations were chosen to be near known Km values. As described in the references cited, two different NADPH regenerating systems were used depending on the substrates used (Table 1). Inhibitors were added to either “low” NADPH-regenerating system (final concentration of 8.1 µM NADP^+, 0.4 mM glucose-6-phosphate, 0.4 mM magnesium chloride, 0.2 U/mL glucose-6-phosphate dehydrogenase) or to “high” NADPH-regenerating system (final concentration of 1.3 mM NADP^+, 3.3 mM glucose-6-phosphate, 3.3 mM magnesium chloride, 0.4 U/mL glucose-6-phosphate dehydrogenase) in a total of 0.1 mL buffer. […] For assays utilizing “low” regenerating systems, product formation was monitored continuously by a Victor3 1420 Multilabel Plate Counter at the designated wavelengths (Table 1). […] Product formation was then measured at the designated wavelengths (Table 1). […]

[2] = biological target: T2, CYP2B1 (Rattus norvegicus, UniProt P00176); test: Fluorescence-based CYP assay, recombinant CYP2B1, substrate EFC; assay type: in vitro ADME
T2 sequence (P00176 1-491): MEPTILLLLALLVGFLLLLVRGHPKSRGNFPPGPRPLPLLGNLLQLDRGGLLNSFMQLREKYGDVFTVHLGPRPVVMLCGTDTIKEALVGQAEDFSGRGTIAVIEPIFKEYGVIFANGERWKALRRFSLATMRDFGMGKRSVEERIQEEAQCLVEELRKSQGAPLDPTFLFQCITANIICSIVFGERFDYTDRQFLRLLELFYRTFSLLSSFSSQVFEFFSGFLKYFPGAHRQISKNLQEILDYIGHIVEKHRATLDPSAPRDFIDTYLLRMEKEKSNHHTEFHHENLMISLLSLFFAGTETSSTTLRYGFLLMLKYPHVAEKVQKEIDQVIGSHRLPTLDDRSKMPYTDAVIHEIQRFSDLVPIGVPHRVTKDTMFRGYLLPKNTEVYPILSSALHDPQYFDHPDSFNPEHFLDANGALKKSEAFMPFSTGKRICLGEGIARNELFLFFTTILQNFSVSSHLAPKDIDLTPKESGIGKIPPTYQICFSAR
Experimental: as §1

[3] = biological target: T3, CYP1A2h (Homo sapiens, UniProt P05177); test: Fluorescence-based CYP assay, recombinant CYP1A2h, substrate CEC; assay type: in vitro ADME
T3 sequence (P05177 1-516): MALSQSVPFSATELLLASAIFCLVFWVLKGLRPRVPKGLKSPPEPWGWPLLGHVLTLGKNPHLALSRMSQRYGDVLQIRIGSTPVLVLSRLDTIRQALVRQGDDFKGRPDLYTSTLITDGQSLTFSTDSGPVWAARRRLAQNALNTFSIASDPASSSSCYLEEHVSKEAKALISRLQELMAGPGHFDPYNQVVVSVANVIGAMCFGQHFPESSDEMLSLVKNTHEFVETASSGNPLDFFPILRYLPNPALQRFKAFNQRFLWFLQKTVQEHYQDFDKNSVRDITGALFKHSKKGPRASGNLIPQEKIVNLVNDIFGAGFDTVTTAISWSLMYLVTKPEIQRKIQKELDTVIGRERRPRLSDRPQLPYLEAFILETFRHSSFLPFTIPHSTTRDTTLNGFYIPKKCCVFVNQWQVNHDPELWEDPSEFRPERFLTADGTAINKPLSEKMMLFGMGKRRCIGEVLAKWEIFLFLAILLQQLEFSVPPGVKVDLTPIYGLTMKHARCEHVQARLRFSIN
Experimental: These assays were performed by methods similar to those described by VanAlstine and Hough, Stresser et al., Wulff et al., Henderson et al., and Crespi et al., with minor modifications. All incubations were performed in a final volume of 200 µL of 50 mM potassium phosphate buffer at pH 7.4 containing 1% acetonitrile. CYP inhibitor studies were performed according to the parameters of Table 1. Substrate concentrations were chosen to be near known Km values. As described in the references cited, two different NADPH regenerating systems were used depending on the substrates used (Table 1). […] Samples were pre-incubated at 37°C for the designated times, and the reactions were initiated with the addition of a substrate and enzyme mixtures (Table 1). […] For the assays utilizing the “high” regenerating system, enzyme reactions were terminated at the designated time by the addition of 75 µL of 2N NaOH, followed by a 2 h post-incubation at 37°C. Product formation was then measured at the designated wavelengths (Table 1). For the “low” regenerating system assays, blanks and standards were prepared in 0.1 mL buffer without the regenerating system. For the “high” regenerating system assays, blanks and standards containing 0.1 mL of buffer received 75 µL of 2N NaOH following pre-incubation.

[4] = biological target: CYP3A4 (Homo sapiens, UniProt P08684); parameters: method as in PMID 10884437; details: 10 µM; cited from earlier work
CYP3A4, sequence (P08684 whole entry): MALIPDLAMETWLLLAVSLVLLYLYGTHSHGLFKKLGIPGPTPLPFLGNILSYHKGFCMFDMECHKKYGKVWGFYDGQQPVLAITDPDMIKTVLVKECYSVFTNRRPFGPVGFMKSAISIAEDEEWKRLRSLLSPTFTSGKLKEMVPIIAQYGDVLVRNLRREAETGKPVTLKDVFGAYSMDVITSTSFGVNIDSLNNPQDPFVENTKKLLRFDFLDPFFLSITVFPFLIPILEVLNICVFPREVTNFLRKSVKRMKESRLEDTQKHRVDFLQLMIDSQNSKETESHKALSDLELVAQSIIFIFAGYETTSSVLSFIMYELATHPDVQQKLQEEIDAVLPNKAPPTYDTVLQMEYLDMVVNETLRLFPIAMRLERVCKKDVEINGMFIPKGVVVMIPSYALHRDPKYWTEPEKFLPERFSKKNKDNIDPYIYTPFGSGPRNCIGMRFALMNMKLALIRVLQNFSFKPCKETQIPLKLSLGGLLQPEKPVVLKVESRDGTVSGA

Clc1ccccc1C(c1ccccc1)(c1ccccc1)n1ccnc1 [Clotrimazole]
Inhibition of CYP2C11 (in words) ([1]; positive control): potent inhibitor
Inhibition of CYP2B1 (in words) ([2]; positive control): potent inhibitor

Clc1ccccc1C(c1ccccc1)(c1ccccc1)n1cccn1 [TRAM-34, 1-[(2-chlorophenyl)diphenylmethyl]-1H-pyrazole]
IC50 [1]: 12.6 µM
IC50 [2]: 3 µM
IC50 [3]: > 80 µM
Inhibition of CYP1A2h (in words) ([3]; up to 80 µM): little to no inhibition; also recorded: no inhibitory effects
Inhibition of CYP3A4 with BFC as substrate (in words) [4]: did not inhibit
